Data: patent publication US20230339949A1, “HETEROCYCLIC SUBSTITUTED FUSED y-CARBOLINE DERIVATIVE, PREPARATION METHOD THEREFOR, INTERMEDIATE THEREOF AND USE THEREOF” (SHUJING BIOPHARMA CO., LTD, priority 2020, published 2023)
pIC50: −log10 of the molar value. Like-named read-outs stand apart in the source and are kept apart here.

Assays:
D2L receptor = biological target: T1, D2L receptor (Homo sapiens, UniProt P14416); test: Functional activity test on D2L receptor, cAMP detection (Gi antagonist test); type: cell-based; settings: cryopreserved CHO-K1/D2L/Gα15 cells, forskolin + dopamine EC90
T1 construct: expressed in transfected cells
T1 sequence (P14416 whole entry): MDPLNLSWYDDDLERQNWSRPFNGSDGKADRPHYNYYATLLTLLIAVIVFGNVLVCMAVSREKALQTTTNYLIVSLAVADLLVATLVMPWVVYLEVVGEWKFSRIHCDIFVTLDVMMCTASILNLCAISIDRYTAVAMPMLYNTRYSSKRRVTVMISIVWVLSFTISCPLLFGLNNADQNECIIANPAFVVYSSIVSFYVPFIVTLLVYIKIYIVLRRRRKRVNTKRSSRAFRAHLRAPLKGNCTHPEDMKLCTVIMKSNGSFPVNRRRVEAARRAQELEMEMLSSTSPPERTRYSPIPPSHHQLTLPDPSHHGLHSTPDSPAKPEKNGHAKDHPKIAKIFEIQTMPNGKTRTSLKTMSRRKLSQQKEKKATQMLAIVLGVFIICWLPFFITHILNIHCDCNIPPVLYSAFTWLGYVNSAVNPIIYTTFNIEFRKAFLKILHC
Text: (§1) The antagonistic effects of the compounds of the present disclosure on D2L and D2S receptors were detected by cyclic adenosine monophosphate (cAMP) detection method at cell-level.
(§2) • (1) Test compound: compounds of the embodiment of the present disclosure, self-made. • (2) Control compound: dopamine hydrochloride (Sigma, H8502), (+)-Butaclamol hydrochloride (Sigma, D033). • (3) Stable cell line:
(§3) • (1) Preparation of test compounds: the compounds of the embodiments of the present disclosure were respectively dissolved in DMSO to prepare 10 mM mother liquor, and the mother liquor was stored in the nitrogen cabinet for later use. • (2) Preparation of control compound: the control compound was dissolved in DMSO to prepare 10 mM mother liquor, and the mother liquor was repackaged and stored in the refrigerator at −80° C. for later use. • (3) IBMX was dissolved in DMSO to prepare 0.5 M stock solution and the stock solution was cryopreserved at −80° C. • (4) Forskolin was dissolved in DMSO to prepare 1 mM stock solution and the stock solution was cryopreserved at −80° C. for later use. • (5) Experimental buffer: 5× stimulation buffer was diluted to 1× with ddH2O and IBMX with a final concentration of 0.5 mM was added thereto, and the solution was mixed well for later use.
(§4) • (1) Preparation of compounds: the test compounds and positive control compound (+)-Butaclamol hydrochloride were diluted gradient using Bravo in the compound plate (Greiner-781280), and the initial concentration of working solution was 20 μM, and the working solution was diluted at 4-fold for 10 concentrations and centrifuged at 1000 rpm for 1 minute for later use. • (2) Cryopreserved D2L cells: cells was taken out from the liquid nitrogen tank and thaw in a water bath at 37° C., and the cell suspension was transferred to a centrifuge tube containing HBSS buffer, and centrifuged at 750 rpm for 5 minutes.
(§5) Cultured D2S cells: after absorbing the culture medium, the cells were washed with 3 mL PBS, sucked out, digested with 0.05% Trypsin for 3 min, terminated with equal volume of culture medium, transferred to centrifuge tube, and centrifuged at 750 rpm for 5 minutes. After absorbing the liquid, the centrifuge tube was added with a buffer solution containing HBSS and re-suspend, and centrifuged at 750 rpm for 5 minutes. • (3) The supernatant was discarded, and the precipitate was re-suspended with proper amount of experimental buffer, and 20 μL was taken for cell counting. • (4) Appropriate amount of cell suspension was removed, and the cell suspension was diluted to 2×10^5 cells/mL with experimental buffer, and the cell plate (PerkinElmer-6008280) was added with 5 μL/well cell suspension, and centrifuged at 1000 rpm for 1 minute. • (5) 5 μL/well was transferred to the cell plate with Bravo, and the cell plate was centrifuged at 1000 rpm for 1 minute, then the cell plate was closed and incubated at room temperature for 15 minutes. • (6) Forskolin was transferred to the cell plate with Tecan-D300e, and Dopamine hydrochloride with a final concentration of EC90 was transferred to the cell plate. • (7) The cell plate was centrifuged at 1000 rpm for 1 minute, then sealed and incubated at room temperature for 45 minutes. • (8) Standard curve: cAMP with the stock solution concentration of 2848 nM was diluted 4-fold continuously at 8 points according to the initial maximum concentration of 712 nM, and 10 μL/well was taken out to add to the cell plate. • (9) 10 μL/well of detection solution containing cAMP-d2 and Anti-cAMP-Cryptate (diluted with pyrolysis buffer at 1:20) was added to the cell plate, and the cell plate was centrifuged at 1000 rpm for 1 minute, and incubated at room temperature without light for 1 hour. • (10) Detection: the cell plate was centrifuged at 1000 rpm for 1 minute, and the plate was read with Envision (excitation light 340 nm, emission light 620 nm and 665 nm). […]

D2S receptor = biological target: T2, D2S receptor (Homo sapiens, UniProt P14416); test: Functional activity test on D2S receptor, cAMP detection (Gi antagonist test); type: cell-based; settings: cultured HEK293/D2S cells, forskolin + dopamine EC90
T2 construct: expressed in transfected cells
T2 sequence (P14416 1-414 isoform P14416-2): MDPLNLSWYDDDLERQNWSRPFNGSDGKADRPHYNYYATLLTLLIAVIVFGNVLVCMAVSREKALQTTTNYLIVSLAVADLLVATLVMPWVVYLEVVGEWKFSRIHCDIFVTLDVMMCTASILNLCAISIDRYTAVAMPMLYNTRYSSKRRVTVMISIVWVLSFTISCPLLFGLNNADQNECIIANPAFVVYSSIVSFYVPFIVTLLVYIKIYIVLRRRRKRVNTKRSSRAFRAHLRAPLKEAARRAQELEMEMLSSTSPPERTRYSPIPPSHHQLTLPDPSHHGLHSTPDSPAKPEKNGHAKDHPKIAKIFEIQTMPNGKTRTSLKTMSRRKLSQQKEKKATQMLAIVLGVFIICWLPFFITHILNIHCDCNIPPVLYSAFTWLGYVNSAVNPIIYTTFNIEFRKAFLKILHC
Text: as §1, §2, §3, §4, §5

[1] = tested on: MK-801 induced hyperactivity behavior; test: MK-801 induced hyperactivity behavior in mice; type: in vivo, ICR mice; settings: for ED50: Mus musculus, read-out: ED50 (half effective dose)
Experimental: The efficacy of the compounds of the present disclosure was evaluated by high activity model of mice induced by intraperitoneal injection of MK-801.
Experimental animals: ICR mice, male, 8 mice/group, Spelford (Beijing) Biotechnology Co., Ltd.
Preparation of drug: the test compounds were taken, and pure water was added, and ultrasonication was performed.
Administration route and method: gavage administration, 10 mL/kg (body weight).
Administration frequency and duration: single dose.
Animals were stratified by body weight and then randomly divided into blank group, model group, and administration group, and detailed information of administration is shown in the following table.
Mice were stratified according to body weight and then randomly divided into model group, blank group and each administration group. One hour after the gavage administration of solvent or drug, 0.3 mg/kg MK-801 was injected intraperitoneally (the blank group was injected with the same volume of physiological saline), and then the mice were put into an independent activity box (a black polyethylene box with the specification of 29 cm×29 cm×30 cm) for video recording for 60 minutes, and video analysis was performed at the end of the recording to evaluate the activity of the mice.
The experimental data were expressed as x±SD, and SPSS statistical software was used to test the homogeneity of variance. If the variance was homogeneous, single factor analysis of variance was performed, and Dunnett t test is used for pairwise comparison. The ED50 was calculated by nonlinear fitting with GraphPad Primis5 software.

[2] = male ICR mice, single gavage dose 1 h before MK-801 0.3 mg/kg i.p., activity recorded 60 min

Row | pIC50 (D2L receptor) | pIC50 (D2S receptor) | Compound | ED50 [1, 2] | MED (lowest effective dose) [1, 2] | ED50 [1]
1 | 7.51 | 6.58 | CN1C(=O)CN2c3c1cccc3[C@]1(C)CN(CCCC(=O)c3ccc(F)cc3)CC[C@H]21 [Embodiment 1-A, (6bR,10aS)-8-(4-(4-fluorophenyl)-4-oxobutyl)-3,6b-dimethyl-6b,7,8,9,10,10a-hexahydro-1H-pyrido[3′,4′:4,5]pyrrolo [1,2,3-de]quinoxalin-2(3H)-one] | 0.08 mg/kg | 0.03 mg/kg | 
2 | 6.88 | 6.46 | CN1CCN2c3c(cccc31)[C@@H]1CN(CCCC(=O)c3ccc(F)cc3)CC[C@@H]12 [ITI-007, Lumateperone, reference compound] | 1.03 mg/kg | 1 mg/kg | 

Row | Compound | pIC50 (D2L receptor) | pIC50 (D2S receptor) | ED50 [1, 2] | MED (lowest effective dose) [1, 2] | ED50 [1]
3 | CN1C(=O)CN2c3c1cccc3C1(C)CN(CCCC(=O)c3ccc(F)cc3)CCC21 (stereo not drawn) [Embodiment 1, 8-(4-(4-fluorophenyl)-4-oxobutyl)-3,6b-dimethyl-6b,7,8,9,10,10a-hexahydro-1H-pyrido[3′,4′:4,5]pyrrolo[1,2,3-de]quinoxalin-2(3H)-one] | 7.69 | 7.02 |  | 0.1 mg/kg | 0.11 mg/kg
